From patent US20230338337A1, “BIOMARKERS FOR CANCER THERAPY USING MDM2 ANTAGONISTS” (OTSUKA PHARMACEUTICAL CO., LTD., priority 2019, published 2023)
“Also recorded” adds a separate entry of the source.

Assays:
OCI-AML3 cells = test: Induction of apoptosis by cleaved caspase-3 cytometry; format: cell-based; settings: 0.1 μM COMPOUND 1 alone, 72 h
[1] = tested on: primary mesothelioma cell line Meso #24 with BAP1 knockdown; test: Apoptosis after BAP1 shRNA knockdown; format: cell-based, human; settings: BAP1 knockdown versus control
Text: BAP1 shRNA was used on primary mesothelioma cell line Meso #24 to achieves table BAP1 knockdown.

[2] = tested on: #19 mesothelioma cell line; test: 72-hour Alamar Blue proliferation assay; format: cell-based; settings: Homo sapiens, read-out: Mean Compound 1 Proliferation IC50 (μM), cell line #19
Description: (§1) For all cell lines the number of viable cells was determined by measuring the conversion of Rezasurin (Alamar Blue) to Resorufin in response to mitochondrial activity of the viable cells. Alamar Blue™ (AbD Serotec/Bio-Rad, Hercules, CA, USA) was added to 10% of the well volume (20 μl/well) towards the end of the treatment period and incubated for a further 8-24 h. The plate was then read at 535 nm (excitation) and 590 nm (emission) on a SpectraMax Gemini reader (Molecular Devices, Sunnyvale, CA, USA). Each well was calculated as percentage of the mean DMSO control.

[3] = tested on: MESO-29T mesothelioma cell line; test: 72-hour Alamar Blue proliferation assay; format: cell-based; settings: Homo sapiens, read-out: Mean Compound 1 Proliferation IC50 (μM), cell line MESO-29T
Description: as §1

[4] = tested on: #40 mesothelioma cell line; test: 72-hour Alamar Blue proliferation assay; format: cell-based; settings: Homo sapiens, read-out: Mean Compound 1 Proliferation IC50 (μM), cell line #40
Description: as §1

[5] = tested on: #24 mesothelioma cell line; test: 72-hour Alamar Blue proliferation assay; format: cell-based; settings: Homo sapiens, read-out: Mean Compound 1 Proliferation IC50 (μM), cell line #24
Description: as §1

[6] = tested on: #35 mesothelioma cell line; test: 72-hour Alamar Blue proliferation assay; format: cell-based; settings: Homo sapiens, read-out: Mean Compound 1 Proliferation IC50 (μM), cell line #35
Description: as §1

[7] = tested on: #52 mesothelioma cell line; test: 72-hour Alamar Blue proliferation assay; format: cell-based; settings: Homo sapiens, read-out: Mean Compound 1 Proliferation IC50 (μM), cell line #52
Description: as §1

[8] = tested on: #12 mesothelioma cell line; test: 72-hour Alamar Blue proliferation assay; format: cell-based; settings: Homo sapiens, read-out: Mean Compound 1 Proliferation IC50 (μM), cell line #12
Description: as §1

[9] = tested on: MESO-50T mesothelioma cell line; test: 72-hour Alamar Blue proliferation assay; format: cell-based; settings: Homo sapiens, read-out: Mean Compound 1 Proliferation IC50 (μM), cell line MESO-50T
Description: as §1

[10] = tested on: #2 mesothelioma cell line; test: 72-hour Alamar Blue proliferation assay; format: cell-based; settings: Homo sapiens, read-out: Mean Compound 1 Proliferation IC50 (μM), cell line #2
Description: as §1

[11] = tested on: 210 p53 wild-type cancer cell lines; test: Cell line panel screen, CellTiter-Glo, 3 days; format: cell-based; settings: ANOVA, adjusted p-value<0.02
Description: Genomic features for these cell lines such as somatic mutations, copy number alterations and hypermethylation were obtained from the list of Cancer Functional Events as reported by Garnett et al (2016). ANOVA method was used to identify significant associations of genomics features to Compound 1 drug response.
Cancer cells were cultured in appropriate medium.
Each cell line was tested in triplicates.

[12] = tested on: human patient-derived mesothelioma cell lines; test: Induction of activated caspase-3, panel; format: cell-based; settings: all 12 cell lines
Description: (§2) In certain embodiments, the MDM2 antagonist induces apoptosis of the cancer cell. Apoptosis may typically be mediated via activated caspase-3. Induction of apoptosis can be determined by detecting cells that are positive for activated caspase-3 following 72-hour treatment with 1 μM of the MDM2 antagonist. […] In certain embodiments, at least 10%, at least 20% or at least 30% of cells staining positive for activated caspase-3 is an indicator of induced apoptosis. […] Active caspase-3 staining kits are commercially-available, for example the “Cleaved Caspase-3 Staining Kit (Red)” available from Abcam (Cambridge, UK) as catalogue number ab65617. The Invitrogen Cell Event dye (C10423) may also be used.
(§3) The extent of Compound 1-induced apoptosis is not predicted from the IC50 values obtained from the Alarmar Blue proliferation assays (Table 1), thus emphasising the impact of grouping cell lines specifically based on their apoptotic potential for subsequent bioinformatics analyses described in the following section.

[13] = tested on: Caki-1 renal cancer cell line with BAP1 knock-down; test: CAKI1 shBAP1 apoptotic assay (Annexin V); format: cell-based, human; settings: 72 hours with 1 uM Compound 1; BAP1 loss versus control
Text: 3 independent shRNAs targeting BAP1 were used and BAP1 knock-down levels achieved with 2 independent shRNAs.

[14] = tested on: 12 p53 wild-type, patient-derived mesothelioma cell lines; test: 72-hour Alamar Blue proliferation assay, panel; format: cell-based; settings: Homo sapiens
Description: as §1

[15] = tested on: #19 mesothelioma cell line; test: Induction of activated caspase-3; format: cell-based, human; settings: 72-hour treatment with 1 μM Compound 1
Description: as §2, §3

[16] = tested on: MESO-29T mesothelioma cell line; test: Induction of activated caspase-3; format: cell-based, human; settings: 72-hour treatment with 1 μM Compound 1
Description: as §2, §3

[17] = tested on: #40 mesothelioma cell line; test: Induction of activated caspase-3; format: cell-based, human; settings: 72-hour treatment with 1 μM Compound 1
Description: as §2, §3

[18] = tested on: MESO-7T mesothelioma cell line; test: Induction of activated caspase-3; format: cell-based, human; settings: 72-hour treatment with 1 μM Compound 1
Description: as §2, §3

[19] = tested on: #26 mesothelioma cell line; test: Induction of activated caspase-3; format: cell-based, human; settings: 72-hour treatment with 1 μM Compound 1
Description: as §2, §3

[20] = tested on: #24 mesothelioma cell line; test: Induction of activated caspase-3; format: cell-based, human; settings: 72-hour treatment with 1 μM Compound 1
Description: as §2, §3

[21] = tested on: #35 mesothelioma cell line; test: Induction of activated caspase-3; format: cell-based, human; settings: 72-hour treatment with 1 μM Compound 1
Description: as §2, §3

[22] = tested on: #18 mesothelioma cell line; test: Induction of activated caspase-3; format: cell-based, human; settings: 72-hour treatment with 1 μM Compound 1
Description: as §2, §3

[23] = tested on: #52 mesothelioma cell line; test: Induction of activated caspase-3; format: cell-based, human; settings: 72-hour treatment with 1 μM Compound 1
Description: as §2, §3

[24] = tested on: #12 mesothelioma cell line; test: Induction of activated caspase-3; format: cell-based, human; settings: 72-hour treatment with 1 μM Compound 1
Description: as §2, §3

[25] = tested on: MESO-50T mesothelioma cell line; test: Induction of activated caspase-3; format: cell-based, human; settings: 72-hour treatment with 1 μM Compound 1
Description: as §2, §3

[26] = tested on: #2 mesothelioma cell line; test: Induction of activated caspase-3; format: cell-based, human; settings: 72-hour treatment with 1 μM Compound 1
Description: as §2, §3

IC50 [2]: 0.17 µM
IC50 [3]: > 10 µM
IC50 [4]: 0.0092 µM
IC50 [5]: 0.094 µM
IC50 [6]: 0.045 µM
IC50 [7]: 0.076 µM
IC50 [8]: 0.078 µM
IC50 [9]: 0.067 µM
IC50 [10]: 0.062 µM
IC50 ([14]; in 7 of the 12 cell lines): < 0.1 µM
IC50 ([14]; in 11 cell lines): < 0.4 µM
Structure (SMILES): CC[C@@](O)(c1cc(F)c2c(c1)C(=O)N([C@H](c1ccc(Cl)cc1)[C@H](C)C(=O)O)[C@@]2(OC)c1ccc(Cl)cc1)C1CCOCC1 [Compound 1, (2S,3S)-3-(4-chlorophenyl)-3-[(1R)-1-(4-chlorophenyl)-7-fluoro-5-[(1S)-1-hydroxy-1-(oxan-4-yl)propyl]-1-methoxy-3-oxo-2,3-dihydro-1H-isoindol-2-yl]-2-methylpropanoic acid]
level of apoptosis (cleaved caspase-3) (OCI-AML3 cells): did not induce a high level of apoptosis; also recorded: does not induce substantial levels of cell death by apoptosis
apoptosis after Compound 1 treatment [1]: increased apoptosis
sensitivity of cell lines with CDKN2A loss versus wild-type CDKN2A [11]: enhanced sensitivity
activated caspase-3 induction [12]: increase in activated caspase-3 was observed in all cell lines
% of cells undergoing apoptosis (Annexin V) [13]: increased apoptosis
cells staining positive for activated caspase-3 [15]: > 40%
apoptosis (cells positive for activated caspase-3) [16]: < 40%
cells staining positive for activated caspase-3 [17]: > 40%
cells staining positive for activated caspase-3 [18]: > 40%
apoptosis (cells positive for activated caspase-3) [19]: < 40%
apoptosis (cells positive for activated caspase-3) [20]: < 40%
apoptosis (cells positive for activated caspase-3) [21]: < 40%
apoptosis (cells positive for activated caspase-3) [22]: < 40%
cells staining positive for activated caspase-3 [23]: > 40%
cells staining positive for activated caspase-3 [24]: > 40%
apoptosis (cells positive for activated caspase-3) [25]: < 40%
cells staining positive for activated caspase-3 [26]: > 40%
